These results are taken from ChEMBL document CHEMBL5126646, “Synthesis and Biological Evaluation of Aurachin D Analogues as Inhibitors of Mycobacterium tuberculosis Cytochrome bd Oxidase” (ACS Med Chem Lett, 2022).

Values after ≈ are worked out from the molar mass of the structure shown.

The subject of data set [1] is Mycobacterium tuberculosis. The data set can be described thus: Antitubercular activity against Mycobacterium tuberculosis mc26230 incubated for 7 days. In kind it is functional. Particulars: mc26230, 168 h, time 7 day.
Data set [2] has as its system Mycolicibacterium smegmatis. Briefly: Growth inhibition of Mycobacterium smegmatis mc2155 harboring deltaqcr mutant incubated for 48 hrs under shaking condition. It is filed as functional.
The nature of data set [3]: Inhibition of Mycobacterium tuberculosis cytochrome bd oxidase over expressed in inverted membrane vesicles of Mycobacterium smegmatis deltacydAB assessed as reduction in malate-induced increase in oxygen consumption rate measured after 60 secs in presence of cytochrome bcc-aa3 complex inhibitor TB47 by fluorespirometry. In kind it is cell membranes, Membrane vesicle.

Data set [4] can be described thus: Growth inhibition of nonpathogenic Mycobacterium smegmatis mc2155 incubated for 48 hrs under shaking condition. The conditions noted are these: mycolicibacterium smegmatis.
Data set [5] is described as follows: Inhibition of Mycobacterium tuberculosis cytochrome bd oxidase over expressed in inverted membrane vesicles of Mycobacterium smegmatis mc2155 deltacydAB assessed as reduction in malate-induced increase in oxygen consumption rate measured at 120 secs in presence of cytochrome bcc-aa3 complex inhibitor TB47 by fluorespirometry. In kind it is cell membranes, Membrane vesicle.

As a reminder, the IC50 is the concentration needed to halve the response being measured. As to `CC(C)=CCC/C(C)=C/CC/C(C)=C/Cc1c(C)[nH]c2cc(Cl)ccc2c1=O`, the MIC in data set [1], in data set [2] and in data set [4] was over 512 µM in each case. Further, the IC50 in data set [3] was over 1000 µM.
Consider `CC(C)=CCC/C(C)=C/CC/C(C)=C/Cc1c(C)[nH]c2cc(F)ccc2c1=O`, for which the MIC is 256 µM (≈ 97.7 µg/mL) in data set [1], over 512 µM in data set [2] and over 512 µM in data set [4]. Also, in data set [3], the IC50 is 0.37 µM.
Consider `CC(C)=CCC/C(C)=C/CC/C(C)=C/Cc1c(C)[nH]c2ccc(N)cc2c1=O`, for which the MIC in data set [1], in data set [2] and in data set [4] was over 512 µM each time. Also, the IC50 in data set [3] came to 5 µM.
Take `CC(C)=CCC/C(C)=C/CC/C(C)=C/Cc1c(C)[nH]c2cc(C)ccc2c1=O`: the MIC in data set [1], in data set [2] and in data set [4] was over 512 µM throughout. Moreover, the IC50 in data set [3] is 31 µM.
`CC(C)=CCC[C@@H](C)CCc1c(C)[nH]c2cc(N)ccc2c1=O`: the MIC in data set [1] was 512 µM (≈ 160 µg/mL); in data set [2], over 512 µM; in data set [4], over 512 µM. Also, in data set [3], the IC50 is 52 µM.
As to `CC(C)=CCC/C(C)=C/Cc1c(C)[nH]c2ccccc2c1=O`, the MIC in data set [1], in data set [2] and in data set [4] was over 512 µM in each case. Besides, the IC50 in data set [3] amounted to 1.1 µM.
For `CC(C)=CCC/C(C)=C/CC/C(C)=C/Cc1c(C)[nH]c2ccc(N=[N+]=[N-])cc2c1=O`, the results for the MIC in data set [1], in data set [2] and in data set [4] were 512 µM (≈ 207 µg/mL), over 512 µM and over 512 µM, respectively. Further, the half-inhibitory concentration (IC50) in data set [3] was 4.7 µM.
For `COc1ccc2c(=O)c(C/C=C(\C)CC/C=C(\C)CCC=C(C)C)c(C)[nH]c2c1`, the MIC in data set [1], in data set [2] and in data set [4] was over 512 µM throughout. Moreover, the IC50 in data set [3] came out at 0.13 µM.
As for `CC(C)=CCC/C(C)=C/Cc1c(C)[nH]c2ccc(N)cc2c1=O`, the MIC in data set [1], in data set [2] and in data set [4] was over 512 µM in each case. For the same molecule, in data set [3], the IC50 came out at 33 µM.
For the molecule `CC(C)=CCc1c(C)[nH]c2ccccc2c1=O`, the MIC in data set [1] was 32 µM (≈ 7.27 µg/mL); in data set [2], over 512 µM; in data set [4] it was over 512 µM. Further, the IC50 in data set [3] is 5.8 µM.
As for `CC(C)=CCC/C(C)=C/CC/C(C)=C/Cc1c(C)[nH]c2ccc([N+](=O)[O-])cc2c1=O`, the MIC in data set [1], in data set [2] and in data set [4] was over 512 µM throughout. In data set [3], the IC50 was 1.8 µM.
On to `CC(C)=CCC/C(C)=C/CC/C(C)=C/Cc1c(C)[nH]c2ccc(F)cc2c1=O`, for which the MIC in data set [1] was 8 µM (≈ 3.05 µg/mL); in data set [2], over 512 µM; in data set [4] it was over 512 µM. Further, the IC50 in data set [3] came to 0.25 µM.
Consider `CC(C)=CCC/C(C)=C/CC/C(C)=C/Cc1c(C)[nH]c2cccc(F)c2c1=O`, for which the MIC was 256 µM (≈ 97.7 µg/mL) in data set [1], over 512 µM in data set [2] and over 512 µM in data set [4]. The IC50 in data set [3] was 7.5 µM.
As for `COc1ccc2[nH]c(C)c(C/C=C(\C)CC/C=C(\C)CCC=C(C)C)c(=O)c2c1`, the values for the MIC in data set [1], in data set [2] and in data set [4] were 256 µM (≈ 101 µg/mL), over 512 µM and over 512 µM, respectively. In addition, the IC50 in data set [3] came to 0.67 µM.
For the molecule `CC(C)=CCC/C(C)=C/CC/C(C)=C/Cc1c(C)[nH]c2cc(C(F)(F)F)ccc2c1=O`, the MIC in data set [1], in data set [2] and in data set [4] was over 512 µM in each case. The IC50 in data set [3] was over 1000 µM.
As to `CC(C)=CCC/C(C)=C/CC/C(C)=C/Cc1c(C)[nH]c2cc(N)ccc2c1=O`, the MIC in data set [1], in data set [2] and in data set [4] was over 512 µM throughout. Also, the IC50 in data set [3] was 1.8 µM.
For the molecule `COc1cccc2[nH]c(C)c(C/C=C(\C)CC/C=C(\C)CCC=C(C)C)c(=O)c12`, the MIC in data set [1] is 32 µM (≈ 12.6 µg/mL); in data set [2], over 512 µM; in data set [4], over 512 µM. Moreover, the IC50 in data set [3] was 0.36 µM.
For the molecule `CC(C)=CCC[C@@H](C)CCc1c(C)[nH]c2ccccc2c1=O`, the MIC in data set [1] is 4 µM (≈ 1.19 µg/mL); in data set [2], over 512 µM; in data set [4], over 512 µM. The IC50 in data set [3] came out at 0.35 µM.
Regarding `CC(C)=CCC/C(C)=C/CC/C(C)=C/Cc1c(C)[nH]c2ccc(O)cc2c1=O`, the results for the MIC in data set [1], in data set [2] and in data set [4] were 256 µM (≈ 97.2 µg/mL), over 512 µM and over 512 µM, respectively. The IC50 in data set [3] came to 0.59 µM.
For `CC(C)=CCC/C(C)=C/CC/C(C)=C/Cc1c(C)[nH]c2ccccc2c1=O` [AURACHIN D], the IC50 in data set [5] was 0.15 µM. Besides, the results for the MIC in data set [1], in data set [2] and in data set [4] were 8 µM (≈ 2.91 µg/mL), over 512 µM and over 512 µM, respectively.
Turning to `CC(C)=CCC/C(C)=C/CC/C(C)=C/Cc1c(C)[nH]c2cc(Cl)cc(Cl)c2c1=O`, the MIC in data set [1], in data set [2] and in data set [4] was over 512 µM in each case. Moreover, the IC50 in data set [3] is 4.6 µM.
Turning to `CC(C)=CCC/C(C)=C/CC/C(C)=C/Cc1c(C)[nH]c2cccc(O)c2c1=O`, the values for the MIC in data set [1], in data set [2] and in data set [4] were 256 µM (≈ 97.2 µg/mL), over 512 µM and over 512 µM, respectively. In data set [3], the 50% inhibitory concentration (IC50) amounted to 0.61 µM.
As to `Cc1[nH]c2ccccc2c(=O)c1Cc1ccccc1`, the MIC is 32 µM (≈ 7.98 µg/mL) in data set [1], over 512 µM in data set [2] and over 512 µM in data set [4]. The IC50 in data set [3] stood at 4.8 µM.
`COc1cccc2c(=O)c(C/C=C(\C)CC/C=C(\C)CCC=C(C)C)c(C)[nH]c12`: the MIC in data set [1] was 64 µM (≈ 25.2 µg/mL); in data set [2], over 512 µM; in data set [4], over 512 µM. Besides, in data set [3], the IC50 was 1.3 µM.
As for `CC(C)=CCC/C(C)=C/CC/C(C)=C/Cc1c(C)[nH]c2ccc(Cl)cc2c1=O`, the MIC in data set [1], in data set [2] and in data set [4] was over 512 µM each time. In addition, the IC50 in data set [3] is 9 µM.
